Reference: the supplement of paper PMC10307832

Key:
Test in all cases: relative viability (nuclei count vs DMSO), 5 days (fraction); higher = more cells survive
Crenolanib + Olaparib = compound: CC1(COc2ccc3c(c2)ncn3-c2ccc3cccc(N4CCC(N)CC4)c3n2)COC1 [Crenolanib] + O=C(c1cc(Cc2n[nH]c(=O)c3ccccc23)ccc1F)N1CCN(C(=O)C2CC2)CC1 [Olaparib] (partner 8 µM)
In short: (§1)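 Cells from lung cancer lines were seeded into 1536-well plates and, one day later, dosed by pin tool. Treatments were either a single drug or a fixed dose of an anchor drug with five library-drug doses (not always all listed) in √10 steps. After 5 days, nuclei were stained in a one-step fixation (final 0.05% Triton X-100, 1% formaldehyde, 1 ug/ml Hoechst) and counted on 4× images, and relative viability is the treated-to-vehicle nuclei ratio, as the median of duplicate plates.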

Crenolanib + Pictilisib = compound: CC1(COc2ccc3c(c2)ncn3-c2ccc3cccc(N4CCC(N)CC4)c3n2)COC1 [Crenolanib] + CS(=O)(=O)N1CCN(Cc2cc3nc(-c4cccc5[nH]ncc45)nc(N4CCOCC4)c3s2)CC1 [Pictilisib] (partner 1 µM)
In short: as §1

Crenolanib + Bortezomib = compound: CC1(COc2ccc3c(c2)ncn3-c2ccc3cccc(N4CCC(N)CC4)c3n2)COC1 [Crenolanib] + CC(C)C[C@H](NC(=O)[C@H](Cc1ccccc1)NC(=O)c1cnccn1)B(O)O [Bortezomib] (partner 0.002 µM)
In short: as §1

Tivantinib + Dasatinib = compound: O=C1NC(=O)[C@@H](c2cn3c4c(cccc24)CCC3)[C@@H]1c1c[nH]c2ccccc12 [Tivantinib] + Cc1nc(Nc2ncc(C(=O)Nc3c(C)cccc3Cl)s2)cc(N2CCN(CCO)CC2)n1 [Dasatinib] (partner 0.075 µM)
In short: as §1

Cell Line	relative viability (Crenolanib + Olaparib; first compound 0.01 µM)	relative viability (Crenolanib + Olaparib; first compound 0.03162 µM)	relative viability (Crenolanib + Olaparib; first compound 0.1 µM)	relative viability (Crenolanib + Olaparib; first compound 0.3162 µM)	relative viability (Crenolanib + Olaparib; first compound 1 µM)	relative viability (Crenolanib + Pictilisib; first compound 0.01 µM)	relative viability (Crenolanib + Pictilisib; first compound 0.03162 µM)	relative viability (Crenolanib + Pictilisib; first compound 0.1 µM)	relative viability (Crenolanib + Pictilisib; first compound 0.3162 µM)	relative viability (Crenolanib + Pictilisib; first compound 1 µM)	relative viability (Crenolanib + Bortezomib; first compound 0.01 µM)	relative viability (Crenolanib + Bortezomib; first compound 0.03162 µM)	relative viability (Crenolanib + Bortezomib; first compound 0.1 µM)	relative viability (Crenolanib + Bortezomib; first compound 0.3162 µM)	relative viability (Crenolanib + Bortezomib; first compound 1 µM)	relative viability (Tivantinib + Dasatinib; first compound 0.01 µM)	relative viability (Tivantinib + Dasatinib; first compound 0.03162 µM)	relative viability (Tivantinib + Dasatinib; first compound 0.1 µM)	relative viability (Tivantinib + Dasatinib; first compound 0.3162 µM)
NCI-H1651	0.177	0.186	0.198	0.171	0.166	0.568	0.511	0.52	0.548	0.502	0.982	0.894	0.904	0.926	0.913	0.386	0.354	0.391	0.475
NCI-H1666	0.764	0.717	0.723	0.692	0.749	0.605	0.352	0.401	0.406	0.411	0.9	0.711	0.858	1.01	0.667	0.765	0.785	0.77	0.742
NCI-H1734	0.617	0.676	0.568	0.7	0.605	0.436	0.494	0.443	0.477	0.432	0.979	1.09	0.919	1.22	0.93	0.425	0.472	0.436	0.478
NCI-H1755	0.919	0.801	0.845	0.898	0.848	0.423	0.408	0.397	0.399	0.393	1.03	0.993	1.01	0.967	0.909	0.482	0.437	0.401	0.39
NCI-H1792	0.439	0.397	0.334	0.757	0.384	0.32	0.34	0.29	0.269	0.195	1.03	0.882	0.879	1.13	0.94	0.902	0.714	0.675	0.481
NCI-H1915	0.267	0.278	0.266	0.283	0.244	0.871	0.957	0.932	0.915	0.586	1	0.974	0.929	1.03	0.772	0.305	0.277	0.294	0.334
NCI-H1975	0.768	0.699	0.73	0.726	0.731	0.271	0.307	0.247	0.283	0.214	0.5	0.39	0.359	0.385	0.295	0.357	0.372	0.276	0.281
NCI-H1993	1.16	1.13	1.07	1.15	0.937	0.778	0.805	0.71	0.858	0.825	0.82	1.11	1.04	1.06	0.994	0.649	0.7	1.35	0.583
NCI-H2009	0.694	0.672	0.694	0.682	0.555	0.854	0.803	0.738	0.708	0.532	1.14	1.02	1.01	0.959	0.813	0.381	0.255	0.301	0.285
NCI-H2023	0.53	0.467	0.476	0.451	0.322	0.264	0.288	0.233	0.278	0.205	1.03	0.95	0.934	1.14	0.578	0.678	0.564	0.506	0.521
NCI-H2085	–	0.752	0.714	0.782	0.784	0.45	0.412	0.481	0.469	0.5	1.05	1.1	1.07	1.11	0.968	0.331	0.244	0.239	0.209
NCI-H2087	0.602	0.643	0.547	0.671	0.623	0.804	0.918	0.665	0.761	0.861	0.885	0.74	0.917	0.865	0.947	0.83	0.942	0.825	0.913
NCI-H2126	0.928	0.91	0.893	0.994	0.952	0.504	0.509	0.51	0.47	0.476	1.09	1.17	1.13	1.15	1.1	0.583	0.676	0.594	0.565
NCI-H2228	0.76	0.833	0.684	1.13	0.686	0.372	0.397	0.272	0.491	0.361	1.11	0.922	0.776	1.01	0.887	–	0.484	0.539	0.352
NCI-H2347	0.555	0.457	0.536	0.59	0.636	0.55	0.625	0.464	0.845	0.561	1.16	0.724	–	0.727	1.19	0.345	0.267	0.283	0.306
NCI-H2405	0.919	–	0.742	0.919	0.86	0.473	0.417	0.285	0.347	0.375	0.998	0.964	0.921	1.05	0.976	0.213	0.213	0.218	0.169
NCI-H3122	0.678	0.622	0.641	0.727	0.61	0.549	0.497	0.561	0.732	0.738	1.08	1.01	1.04	1.05	1.16	0.808	0.808	0.788	0.686
